Experimental data taken from publication PMC8886686 (Journal of Inorganic Biochemistry, 2022).

Columns and labels:
[1] = biological target: 3CLpro^D155A/C156S (Severe acute respiratory syndrome coronavirus 2, UniProt P0DTD1, C3419S/D3418A); assay type: biochemical, SARS-CoV-2; settings: read-out: IC50, 3CLpro^D155A/C156S activity
[2] = biological target: PLpro^C112S (Severe acute respiratory syndrome coronavirus 2, UniProt P0DTD1, C1674S); assay type: binding, SARS-CoV-2

O=C([O-])[C@H](O)[C@@H](O)[C@H](O)[C@H](O)CO.O=C([O-])[C@H](O)[C@@H](O)[C@H](O)[C@H](O)CO.[Zn+2] [Zn^2+, zinc gluconate] was tested, and the IC50 [1] was 1.54 ± 0.05 µM and the “Zn2+ binding capacity of PLpro^C112S (ICP-MS)” value [2] was 0.71 ± 0.01 eq.
